According to ChEMBL document CHEMBL4613308, “Screen of Unfocused Libraries Identified Compounds with Direct or Synergistic Antibacterial Activity” (ACS Med Chem Lett, 2020):
Values after ≈ are worked out from the molar mass of the structure shown.

Legend:
Escherichia coli [1] = assay: Antibacterial activity against Escherichia coli CCUG assessed as bacterial growth inhibition by agar diffusion assay; format: functional
Klebsiella pneumoniae [2] = assay: Antibacterial activity against Klebsiella pneumoniae ATCC 13833 assessed as bacterial growth inhibition by agar diffusion assay; format: functional
Pseudomonas aeruginosa [3] = assay: Antibacterial activity against Pseudomonas aeruginosa ATCC 27853 assessed as bacterial growth inhibition by agar diffusion assay; format: functional
Acinetobacter baumannii [4] = assay: Antibacterial activity against Acinetobacter baumannii ATCC 17978 assessed as bacterial growth inhibition by agar diffusion assay; format: functional
Acinetobacter baumannii [5] = assay: Synergistic antibacterial activity against Acinetobacter baumannii ATCC 17978 in presence of 0.5 times MIC of colistin by microdilution broth method; format: functional
Escherichia coli [6] = assay: Synergistic antibacterial activity against Escherichia coli CCUG in presence of 0.5 times MIC of colistin by microdilution broth method; format: functional
Klebsiella pneumoniae [7] = assay: Synergistic antibacterial activity against Klebsiella pneumoniae ATCC 13833 in presence of 0.5 times MIC of colistin by microdilution broth method; format: functional
Acinetobacter baumannii [8] = assay: Potentiation of colistin-induced antibacterial activity against Acinetobacter baumannii ATCC 17978 assessed as fold reduction in colistin MIC by microdilution broth method relative to colistin MIC; format: functional
Escherichia coli [9] = assay: Potentiation of colistin-induced antibacterial activity against Escherichia coli CCUG assessed as fold reduction in colistin MIC in by microdilution broth method relative to colistin MIC; format: functional
Klebsiella pneumoniae [10] = assay: Potentiation of colistin-induced antibacterial activity against Klebsiella pneumoniae ATCC 13833 assessed as fold reduction in colistin MIC by microdilution broth method relative to colistin MIC; format: functional
Bacillus spizizenii = assay: Antibacterial activity against Bacillus subtilis ATCC 6633 assessed as bacterial growth inhibition by agar diffusion assay; format: functional
Enterococcus faecalis = assay: Antibacterial activity against Enterococcus faecalis ATCC 29212 assessed as bacterial growth inhibition by agar diffusion assay; format: functional
Staphylococcus aureus = assay: Antibacterial activity against Staphylococcus aureus ATCC 25923 assessed as bacterial growth inhibition by agar diffusion assay; format: functional
Streptococcus pyogenes = assay: Antibacterial activity against Streptococcus pyogenes ATCC 12344 assessed as bacterial growth inhibition by agar diffusion assay; format: functional
Enterobacter cloacae [11] = assay: Antibacterial activity against multidrug-resistant Enterobacter cloacae VA 417/02 clinical isolate assessed as bacterial growth inhibition by agar diffusion assay; format: functional
Enterobacter cloacae [12] = assay: Antibacterial activity against multidrug-resistant Enterobacter cloacae Z19 clinical isolate assessed as bacterial growth inhibition by agar diffusion assay; format: functional
Escherichia coli [13] = assay: Antibacterial activity against multidrug-resistant Escherichia coli Z25 clinical isolate assessed as bacterial growth inhibition by agar diffusion assay; format: functional
Pseudomonas aeruginosa [14] = assay: Antibacterial activity against multidrug-resistant Pseudomonas aeruginosa VR-143/97 clinical isolate assessed as bacterial growth inhibition by agar diffusion assay; format: functional
Acinetobacter baumannii [15] = assay: Antibacterial activity against Acinetobacter baumannii AC-54/97 clinical isolate assessed as bacterial growth inhibition by agar diffusion assay; format: functional
Pseudomonas aeruginosa [16] = assay: Synergistic antibacterial activity against Pseudomonas aeruginosa ATCC 27853 in presence of 0.5 times MIC of colistin by microdilution broth method; format: functional
Acinetobacter baumannii [17] = assay: Synergistic antibacterial activity against Acinetobacter baumannii ATCC 17978 assessed as fractional inhibitory concentration index in presence of colistin by Checkerboard assay; format: functional
Pseudomonas aeruginosa [18] = assay: Synergistic antibacterial activity against Pseudomonas aeruginosa ATCC 27853 assessed as fractional inhibitory concentration index in presence of colistin by Checkerboard assay; format: functional
Pseudomonas aeruginosa [19] = assay: Potentiation of colistin-induced antibacterial activity against Pseudomonas aeruginosa ATCC 27853 assessed as fold reduction in colistin MIC by microdilution broth method relative to colistin MIC; format: functional
Klebsiella pneumoniae [20] = assay: Synergistic antibacterial activity against colistin-resistant Klebsiella pneumoniae SI-004Bo clinical isolate in presence of 2 ug/ml colistin by microdilution broth method (reference value: 64 ug/ml); format: functional
Klebsiella pneumoniae [21] = assay: Synergistic antibacterial activity against colistin-resistant Klebsiella pneumoniae SI-081R clinical isolate in presence of 2 ug/ml colistin by microdilution broth method (reference value: 256 ug/ml); format: functional
Acinetobacter baumannii [22] = assay: Synergistic antibacterial activity against multidrug-resistant Acinetobacter baumannii N50 in presence of 2 ug/ml colistin by microdilution broth method; format: functional
HeLa = assay: Cytotoxicity against human HeLa cells assessed as reduction in cell viability assay by CellTox-Green assay; format: cell-based
Escherichia coli [23] = assay: Synergistic antibacterial activity against Escherichia coli CCUG assessed as fractional inhibitory concentration index in presence of colistin by Checkerboard assay; format: functional

Structure (SMILES) | MIC (Escherichia coli [1]) | MIC (Klebsiella pneumoniae [2]) | MIC (Pseudomonas aeruginosa [3]) | MIC (Acinetobacter baumannii [4]) | MIC (Acinetobacter baumannii [5]) | MIC (Escherichia coli [6]) | MIC (Klebsiella pneumoniae [7]) | log2FC (Acinetobacter baumannii [8]) | log2FC (Escherichia coli [9]) | log2FC (Klebsiella pneumoniae [10]) | MIC (Bacillus spizizenii) | MIC (Enterococcus faecalis) | MIC (Staphylococcus aureus) | MIC (Streptococcus pyogenes) | MIC (Enterobacter cloacae [11]) | MIC (Enterobacter cloacae [12]) | MIC (Escherichia coli [13]) | MIC (Pseudomonas aeruginosa [14]) | MIC (Acinetobacter baumannii [15]) | also measured
CCCCCCC(C)(C)c1cc(O)cc(OCCCCCCCC(=O)NCCO)c1 | > 512 µg/mL | > 512 µg/mL | > 512 µg/mL | > 512 µg/mL | 4 µg/mL | 2 µg/mL | 4 µg/mL | 7 | 8 | 7 | – | – | – | – | – | – | – | – | – | –
CC(C)(C)n1cc(C(=O)O)c(=O)c2cc(F)c(Br)cc21 | 8 µg/mL (≈ 23.4 µM) | 1 µg/mL (≈ 2.92 µM) | 32 µg/mL (≈ 93.5 µM) | 8 µg/mL (≈ 23.4 µM) | – | – | – | – | – | – | ≤ 0.12 µg/mL | 2 µg/mL (≈ 5.85 µM) | 8 µg/mL (≈ 23.4 µM) | 8 µg/mL (≈ 23.4 µM) | 2 µg/mL (≈ 5.85 µM) | > 256 µg/mL | > 256 µg/mL | > 256 µg/mL | > 256 µg/mL | –
COc1ccc(-c2cc3c(cc2F)c(=O)c(C(=O)O)cn3C(C)(C)C)cc1 | > 256 µg/mL | 16 µg/mL (≈ 43.3 µM) | > 256 µg/mL | 16 µg/mL (≈ 43.3 µM) | – | – | – | – | – | – | ≤ 0.12 µg/mL | 0.5 µg/mL (≈ 1.35 µM) | 0.25 µg/mL (≈ 0.677 µM) | ≤ 0.12 µg/mL | 128 µg/mL (≈ 347 µM) | > 256 µg/mL | > 256 µg/mL | > 256 µg/mL | > 256 µg/mL | –
CCCCCc1cc(O)cc(OCCCCCCCCCCCC(=O)NCCO)c1 | > 512 µg/mL | > 512 µg/mL | > 512 µg/mL | > 512 µg/mL | 4 µg/mL | 8 µg/mL | 8 µg/mL | 7 | 6 | 6 | – | – | – | – | – | – | – | – | – | MIC (Pseudomonas aeruginosa [16]): 4 µg/mL; fractional inhibitory concentration index (FICI) (Acinetobacter baumannii [17]): 0.31; fractional inhibitory concentration index (FICI) (Pseudomonas aeruginosa [18]): 0.41; log2FC (Pseudomonas aeruginosa [19]): 7; MIC (Klebsiella pneumoniae [20]): > 64 µg/mL; MIC (Klebsiella pneumoniae [21]): > 64 µg/mL; MIC (Acinetobacter baumannii [22]): 4 µg/mL; IC50 (HeLa): 18 µg/mL (≈ 42.7 µM)
CCCCCCc1ccc(OCCCCCCCC(=O)NCCO)cc1O | > 512 µg/mL | > 512 µg/mL | > 512 µg/mL | > 512 µg/mL | 16 µg/mL | 8 µg/mL | 4 µg/mL | 5 | 6 | 7 | – | – | – | – | – | – | – | – | – | –
COc1ccc(CNC(=O)c2c(O)c3cc(-c4cccnc4)ccc3n(CCCCO)c2=O)cc1 | 64 µg/mL (≈ 135 µM) | 32 µg/mL (≈ 67.6 µM) | 256 µg/mL (≈ 541 µM) | 16 µg/mL (≈ 33.8 µM) | 16 µg/mL | 32 µg/mL | 64 µg/mL | 5 | 4 | 3 | 0.12 µg/mL (≈ 0.253 µM) | 16 µg/mL (≈ 33.8 µM) | 4 µg/mL (≈ 8.45 µM) | 8 µg/mL (≈ 16.9 µM) | 64 µg/mL (≈ 135 µM) | > 256 µg/mL | > 256 µg/mL | > 256 µg/mL | > 256 µg/mL | fractional inhibitory concentration index (FICI) (Escherichia coli [23]): 0.56
CC(C)(C)n1cc(C(=O)O)c(=O)c2cc(F)c(Sc3ccccc3)cc21 | 16 µg/mL (≈ 43.1 µM) | 8 µg/mL (≈ 21.5 µM) | 256 µg/mL (≈ 689 µM) | 32 µg/mL (≈ 86.2 µM) | – | – | – | – | – | – | ≤ 0.12 µg/mL | 2 µg/mL (≈ 5.38 µM) | 2 µg/mL (≈ 5.38 µM) | 1 µg/mL (≈ 2.69 µM) | 16 µg/mL (≈ 43.1 µM) | 256 µg/mL (≈ 689 µM) | > 256 µg/mL | 128 µg/mL (≈ 345 µM) | > 256 µg/mL | –
O=C(O)c1cn(C2CC2)c2cc(Br)c(F)cc2c1=O | 0.25 µg/mL (≈ 0.767 µM) | ≤ 0.12 µg/mL | 8 µg/mL (≈ 24.5 µM) | 0.5 µg/mL (≈ 1.53 µM) | – | – | – | – | – | – | ≤ 0.12 µg/mL | 4 µg/mL (≈ 12.3 µM) | 4 µg/mL (≈ 12.3 µM) | 4 µg/mL (≈ 12.3 µM) | 0.25 µg/mL (≈ 0.767 µM) | > 256 µg/mL | > 256 µg/mL | 256 µg/mL (≈ 785 µM) | 256 µg/mL (≈ 785 µM) | –
CC(C)(C)n1cc(C(=O)O)c(=O)c2cc(F)c(-c3ccc(F)cc3F)cc21 | 16 µg/mL (≈ 42.6 µM) | 4 µg/mL (≈ 10.7 µM) | 64 µg/mL (≈ 171 µM) | 8 µg/mL (≈ 21.3 µM) | – | – | – | – | – | – | ≤ 0.12 µg/mL | 2 µg/mL (≈ 5.33 µM) | 2 µg/mL (≈ 5.33 µM) | 1 µg/mL (≈ 2.66 µM) | 4 µg/mL (≈ 10.7 µM) | > 256 µg/mL | > 256 µg/mL | > 256 µg/mL | > 256 µg/mL | –
CCOC(=O)c1c(O)nc2c(C)cccc2c1O | > 512 µg/mL | > 512 µg/mL | > 512 µg/mL | > 512 µg/mL | 64 µg/mL | 64 µg/mL | 16 µg/mL | 3 | 3 | 5 | – | – | – | – | – | – | – | – | – | –
